The values that follow come from patent US20090048449A1, “RIMONABANT MONOHYDRATE, PROCESS FOR THE PREPARATION THEREOF AND PHARMACEUTICAL COMPOSITIONS CONTAINING SAME” (SANOFI-AVENTIS, priority 2006, published 2009).

The structures appear in SMILES notation.

Type in all cases: physicochemical
Data set [1] is described as follows: Water vapor sorption/desorption at 25° C. (SGA100 analyzer). To be noted: sorption cycle 0-100% RH at 25° C. after degassing the monohydrate at 80° C. for 3 hours (water of hydration lost). The method, then:
Analysis of water vapor sorption/desorption measurements was carried out on the rimonabant monohydrate crystal form on a SGA100 analyzer sold by VTI (USA). It was operated between 0% and 100% relative humidity at 25° C. after degassing the monohydrate form at 80° C. for 3 hours. The rimonabant monohydrate loses its water of hydration molecule during drying at 80° C. During the water vapor sorption cycle, the conversion of the rimonabant into rimonabant monohydrate occurs starting from 40% relative humidity. The sorption/desorption isotherm is represented in FIG. 4.

Data set [2] in a line: Flowability of the crystal forms by flowability / compressibility / Carr index. To be noted: for Carr index: tap and bulk densities in graduated cylinder, data at 10 and 1250 taps, <=20% good powder flow, >21% passable to very difficult. As to the method: The flowability of the rimonabant monohydrate crystal form was measured and compared to that of the rimonabant crystal form II. The flowability of the crystal forms is measured by the flowability index or compressibility index or Carr index as described in R. L. Carr: Evaluation of flow properties of solids, Chem. Eng., 1965, 163-168 and also in the European Pharmacopeia.
The flowability index is calculated according to the following equation: IC=100×(ρt−ρb)/ρt where ρt is the tap density and ρb is the bulk density. This index is considered to be good if it is less than 20.
The densities are determined experimentally by packing the product into a graduated cylinder according to the procedure described in the European Pharmacopeia. The densities are determined after 10, 500, 1250 and 2500 taps. The Carr index is determined from the data measured at 10 and 1250 taps.
A Carr index less than or equal to 20% is considered as corresponding to a good powder flow, whereas a Carr index greater than 21% is considered as corresponding to a passable, even difficult or very difficult, powder flow.

Data set [3] can be described thus: Filterability: specific resistance of the filter cake. To be noted: filtering crystals from the solution in which they were formed; comparison with form I and form II. An excerpt:
The improvement in filterability allows the filtration step to be shortened and leads to a significant improvement in the texture of the filter cake which is characterized by a low moisture content of the powder before drying and a low degree of residual solvent before drying. The resulting powder after drying has improved physical properties, especially in terms of flowability and therefore of handleability.

Consider `Cc1c(C(=O)NN2CCCCC2)nn(-c2ccc(Cl)cc2Cl)c1-c1ccc(Cl)cc1` [rimonabant, N-piperidino-5-(4-chlorophenyl)-1-(2,4-dichlorophenyl)-4-methylpyrazole-3-carboxamide], for which the “Relative humidity from which conversion of rimonabant into rimonabant monohydrate occurs” value in data set [1] is reported as at least 40 % relative humidity. In the case of `Cc1c(C(=O)NN2CCCCC2)nn(-c2ccc(Cl)cc2Cl)c1-c1ccc(Cl)cc1` [rimonabant crystal form II, N-piperidino-5-(4-chlorophenyl)-1-(2,4-dichlorophenyl)-4-methylpyrazole-3-carboxamide], the Carr index entry in data set [2] is “around 38%”. As to `Cc1c(C(=O)NN2CCCCC2)nn(-c2ccc(Cl)cc2Cl)c1-c1ccc(Cl)cc1` [rimonabant crystal form I, N-piperidino-5-(4-chlorophenyl)-1-(2,4-dichlorophenyl)-4-methylpyrazole-3-carboxamide], the “Flowability corresponding to the Carr index (in words)” value in data set [2] (Carr index measured, only class in words printed) is “very difficult flowability”. In the case of `Cc1c(C(=O)NN2CCCCC2)nn(-c2ccc(Cl)cc2Cl)c1-c1ccc(Cl)cc1` [rimonabant monohydrate crystal form], the “Specific resistance of the filter cake” value in data set [3] is “less than that measured for rimonabant crystal form I and crystal form II”. In addition, in data set [2], the Carr index is listed as 20%.
